Experimental data reported in PubChem BioAssay AID720512 (Broad Institute, 2013).
Calls of active or inactive are those of the source. No rule for the calls is given here.

Biological target: Toxin B (TcdB) glycohydrolase, Clostridioides difficile 630
Assay: TcdB glycohydrolase inhibitors, dose response, biochemical, cherry-pick, plate reader (AID 720512)
Conditions: recombinant TcdB glycohydrolase activity

SMILES	activity change, negative = inhibition (at 19.5 µM (top of the series))	other results
O=C(C[C@@H]1CC[C@@H]2[C@H](COC[C@@H](O)CN2C(=O)Nc2ccc(Cl)c(Cl)c2)O1)NCc1ccncc1	inactive	–
COC(=O)CN1C(C)=Nc2ccc(Br)cc2C1c1ccccc1 (configuration not stated)	inactive	–
CN(C)CCNC(=O)c1cc2c(s1)-c1ccc(Cl)cc1SC2	–	AC50: > 39 µM (inactive)
COCC(=O)N1CC[C@@H]2[C@H]1c1cc(-c3cccc(OC)c3)ccc1N(C)[C@H]2CO	–	activity change, negative = inhibition (at 21 µM (top of the series)): inactive
COC(=O)/C=C/C(=O)Nc1ccc(O)c(Cl)c1	–	AC50: 20.9 µM
Nc1ccc2nc(-c3cccs3)[nH]c2c1	–	AC50: > 39 µM (inactive)
Cc1cccc(/C=C/c2onc(C)c2S(=O)(=O)N2CCC(C(=O)NC(C)(C)C)CC2)c1	inactive	–
Cc1ccc(C)c2nc(Cl)c(C3NC(=O)c4ccccc4N3)cc12 (configuration not stated)	inactive	–
O=C(C[n+]1ccccc1)N/N=C/c1ccc(O)cc1	inactive	–
O=C(CCn1c(=O)oc2cc(Cl)ccc21)Nc1ccc(O)cc1	–	AC50: > 20 µM (inactive)
COc1ccc(NC(=O)Nc2nc(C)cc(C)n2)c(OC)c1	inactive	–
CCN1CCN(S(=O)(=O)c2ccc3[nH]c(=O)oc3c2)CC1	inactive	–
C[C@H](CO)N1C[C@H](C)[C@H](CN(C)Cc2ccc(Oc3ccccc3)cc2)Oc2cc(-c3ccncc3)ccc2S1(=O)=O	inactive	–
Cc1ccc(C(=O)Nc2ccc(O)cc2C(=O)O)cc1C	inactive	–
O=C(NCc1ccccc1)C1Cc2c(-c3cccc(F)c3)ccnc2O1 (configuration not stated)	inactive	–
COc1ccc(CCNC(=O)CCCn2nc(C)n3ccnc3c2=O)cc1OC	inactive	–
Cc1ccccc1NS(=O)(=O)c1ccc(OCC(=O)N2CCCCC2)cc1	inactive	–
COc1cc(NC(=O)CCc2nnc3ccc(N4CCC(C)CC4)nn23)cc(OC)c1	inactive	–
COCCN(C(=O)C(C)C)c1nnc(-c2ccc(C(C)(C)C)cc2)s1	inactive	–
COc1cccc(/C=C/c2onc(C)c2S(=O)(=O)N2CCC(C(=O)NC3CCCCCC3)CC2)c1	inactive	–
COc1ccc(C2=NS(=O)(=O)N(C)C(C(=O)NCc3ccc(F)cc3)=C2)cc1OC	inactive	–
O=C(NNc1ccc(-c2csnn2)cc1)c1cc(Cl)cc(Cl)c1	inactive	–
O=S(=O)(Cc1cccc(F)c1)c1c[nH]c2ccccc12	inactive	–

SMILES	activity change, negative = inhibition (at 19.5 µM (top of the series))	other results
O=C(NCCc1cccc(Cl)c1)c1ccc(Cl)c([N+](=O)[O-])c1	inactive	–
COc1cccc(C(=O)COC(=O)c2ccc(NC(=O)c3ccccc3)cc2)c1	inactive	–
COc1nc(C)cc(C)c1S(=O)(=O)c1ccc(Cl)cc1	inactive	–
COc1ccc(C(=O)N2CCOCC2)cc1S(=O)(=O)N1CCCc2ccccc21	inactive	–
COc1ccc(C2=NS(=O)(=O)N(C)C(C(=O)NCc3ccc4c(c3)OCO4)=C2)cc1OC	inactive	–
Cc1cc(C)c(NS(=O)(=O)c2cccc3cccnc23)c(C)c1	inactive	–
CC(C)(C)N1C(=O)c2ccc(C(=O)Nc3ccc(O)cc3)cc2C1=O	inactive	–
Cn1cc(C(CO)Cc2ccccc2)c2ccccc21 (configuration not stated)	inactive	–
O=C(CN1C(=O)NC2(CCCc3ccccc32)C1=O)NCc1cccs1 (configuration not stated)	inactive	–
CCN(CC)CCCCN1c2ccccc2Sc2ccccc21	–	AC50: > 39 µM (inactive)
CCOC(=O)c1nnn(-c2nonc2N)c1-c1ccccc1Cl	inactive	–
COc1ccccc1/C=N/NC(=O)CC(=O)NCc1ccccc1	inactive	–
Cc1cccc(-n2c(=O)c3ccccc3n3c(=S)[nH]nc23)c1C	inactive	–
CCOCCCNC(=O)C1CCN(S(=O)(=O)c2c(C)noc2/C=C\c2ccc(OC)cc2)CC1	inactive	–
O=C1CCCC2=C1Sc1ccccc1N2	inactive	–
COc1ccc(C(=O)NC(C(=O)NCc2ccccc2OC)C(C)C)cc1 (configuration not stated)	inactive	–
C[C@H](CO)N1C[C@H](C)[C@@H](CN(C)C(=O)Nc2ccc(C(F)(F)F)cc2)Oc2c(cccc2N(C)C)C1=O	inactive	–
O=C(CSc1nnc(-c2ccncc2)o1)N1CCCCCC1	inactive	–
NS(=O)(=O)c1ccc(NC(=S)NCc2ccc3c(c2)OCO3)cc1	inactive	–
O=[N+]([O-])c1ccc(/C=C/c2ccc3ccccc3n2)cc1	inactive	–
O=C(NC(=S)NCc1ccccc1)c1cccnc1	inactive	–
CC(=O)Oc1ccc(/C=N/NC(=O)CCSc2ccccc2)cc1	–	AC50: > 39 µM (inactive)
Cc1ccc(NNC(=O)c2ccno2)cc1Cl	inactive	–

SMILES	activity change, negative = inhibition (at 19.5 µM (top of the series))	other results
COc1ccccc1Nc1nnc(SCc2cc(=O)n3ccsc3n2)s1	inactive	–
COc1cc(O)ccc1C(=O)CCc1ccc(O)cc1	inactive	–
CNC(=O)C1Cc2c(-c3ccccc3Oc3ccccc3)ccnc2O1 (configuration not stated)	inactive	–
Cn1c(=O)[nH]c(=O)c2c1[nH]c(=S)n2Cc1ccc(Cl)cc1	inactive	–
O=C(CCC(=O)N1CCSc2ccccc21)Nc1cccc(F)c1	inactive	–
O=C(C[C@H]1C[C@H]2c3cc(NC(=O)c4ccc5c(c4)OCO5)ccc3O[C@H]2[C@H](CO)O1)NCc1cccc(F)c1	inactive	–
COc1ccc(/C=C\c2onc(C)c2S(=O)(=O)N2CCC(C(=O)NCCC(C)C)CC2)cc1	inactive	–
Cc1ccc(C(=O)NC(=S)NNC(=O)CC#N)cc1	inactive	–
COc1ccc(-c2ccc3c(c2)[C@H]2[C@H](CCN2C(=O)Cc2cccnc2)[C@@H](CO)N3C)cc1	inactive	–
COc1cccc(-n2c(SCC(=O)N3CCOCC3)nnc2-c2c[nH]c3ccccc23)c1	inactive	–
CC1CCC/C(=C\c2ccc(O)cc2)C1=O (configuration not stated)	–	AC50: 16.9 µM
COc1ccc(C(=O)Nc2cc(Cl)ccc2C(=O)O)cc1	inactive	–
O=C(Cc1ccccc1)NNC(=S)NC(=O)c1cccnc1	inactive	–
C=CCn1c(SCC(=O)N2CC(=O)Nc3ccccc32)nc2scc(-c3ccccc3)c2c1=O	inactive	–
Cc1cc(NC(=O)CCCN2C(=O)c3cccc4cccc(c34)C2=O)no1	inactive	–
CNc1cncc(-c2ccc(O)cc2)n1	–	AC50: > 39 µM (inactive)
CCC(=O)N1CC[C@@H]2[C@@H](CO)N(C)c3ccc(-c4ccccc4)cc3[C@@H]21	–	AC50: > 42 µM (inactive)
Cc1cc(C)nc(SCC(=O)c2ccc(O)c(O)c2)n1	inactive	–
O=C(Nc1nnc(-c2ccco2)o1)C1CC1	inactive	–
O=C(C[C@@H]1CC[C@H]2[C@@H](COC[C@@H](O)CN2C(=O)c2ccccn2)O1)NC1CCC1	inactive	–
Nc1ccc2c(c1)Nc1ccccc1CC2	inactive	–
